Laboratory results published in patent publication US6521239B1, “Cosmetic composition containing at least one auxin and its use” (Societe L'Oreal S.A., priority 1997, dated 2003).

System: reconstructed human epidermis
Experiment: incorporation of 14C-acetate into total lipids in reconstructed human epidermis (Skinethic)
Assay type: cell-based
Details: for percentage of stimulation (incorporation of 14C-acetate, total lipid synthesis): untreated cells = 100
Protocol: Study of the effect of β-naphthoxyacetic acid on the synthesis of the total lipids of the skin.
The study is carried out by measuring the incorporation of acetate labelled with carbon-14 in models of reconstructed human epidermis sold by the company Skinethic, the total lipids composition of which is close to that of normal human epidermis.
The reconstructed human epidermis is cultured according to the supplier's recommendations.
β-Naphthoxyacetic acid, at concentrations of 10^−5, 10^−6, and 10^−7 M, is placed in contact for 72 hours with reconstructed human epidermides, after culturing the latter for 14 days under the conditions recommended by the supplier. The labelling with ^14C-acetate (sodium [2-^14C]-acetate sold by Amersham, 59 mci/mmol) is carried out 24 hours after placing the test product in contact with the culture, i.e. during the final 48 hours of culturing, at a rate of 0.5 μCi of ^14C-acetate per culture.
At the end of culturing, after washing the epidermides with phosphate buffer (PBS), the epidermides are dissociated and the cells are lysed with 0.5 M perchloric acid from ice. The lysates then undergo an extraction with a methanol/chloroform mixture (2:1), a centrifugation and a re-extraction of the pellets obtained, under the same conditions as above. The lipids are separated by addition of PBS and chloroform (Blight-Byer technique). The organic phase containing the lipids is taken and the radioactivity incorporated into this phase is determined by liquid scintillation. The organic phase is then dried under a flow of nitrogen. A thin layer chromatography on plates on plates (Merck K60) using, as eluent, a chloroform/methanol/water mixture (50:18:2.6) to separate the phospholipids, or a hexane/ether/acetic acid mixture (15:5.6:0.19) to separate the neutral lipids.
The plates are then autoradiographed for 24 hours and the chromatograms are analysed by densitometry using the One-D-Scan software from the company Scanalytics.
The results are evaluated relative to a control consisting of cells which have not been treated with β-naphthoxyacetic acid.
A positive control (10^−4 M trifluoperazine), which is known to stimulate lipid synthesis, and an negative control (10^−6 M retinoic acid) are introduced into the test by way of reference.

Structure (SMILES) | percentage of stimulation (incorporation of 14C-acetate, total lipid synthesis) (10^−5 M, 72 hours contact) | effect on incorporation of acetate / lipid synthesis (in words) (10^−5 to 10^−7 M, reconstructed human epidermis) | percentage of stimulation (incorporation of 14C-acetate, total lipid synthesis) (10^−6 M, 72 hours contact) | percentage of stimulation (incorporation of 14C-acetate, total lipid synthesis) (10^−7 M, 72 hours contact) | percentage of stimulation (incorporation of 14C-acetate, total lipid synthesis) (10^−4 M, positive control)
O=C(O)COc1ccc2ccccc2c1 [β-Naphthoxyacetic acid] | 110% | significantly stimulates the incorporation of acetate | 113% | 116% | 
CN1CCN(CCCN2c3ccccc3Sc3ccc(C(F)(F)F)cc32)CC1 [Trifluoroperazine, trifluoperazine, reference compound] |  |  |  |  | 122%
CC1=C(/C=C/C(C)=C/C=C/C(C)=C/C(=O)O)C(C)(C)CCC1 [Retinoic acid, retinoic acid, reference compound] |  |  | 82% |  | 
